How the values were obtained:
SR = assay: Antiproliferative activity against human SR cells assessed as growth inhibition after 48 hrs by sulforhodamine B assay; assay type: functional
MDA-MB-468 = assay: Antiproliferative activity against human MDA-MB-468 cells assessed as growth inhibition after 48 hrs by sulforhodamine B assay; assay type: functional; conditions: MDA-MB-468, 48 h
Hs-578T = assay: Antiproliferative activity against human Hs578T cells assessed as growth inhibition after 48 hrs by sulforhodamine B assay; assay type: functional
[1] = (§1) Haemolytic activity in human erythrocytes assessed as induction of hemolysis at 2.5 mM after 30 mins relative to H202; assay type: cell-based, Erythrocyte; conditions: erythrocytes, read-out: Activity
[2] = Antioxidant activity assessed as DPPH radical scavenging activity incubated in dark for 30 mins by spectrophotometric method relative to ascorbic acid; assay type: functional
HCT-116 [3] = assay: Induction of apoptosis in human HCT116 cells assessed as increase in caspase 3 mRNA expression at 100 nM after 6 hrs hrs by SYBR green dye-based qRT-PCR analysis relative to control; assay type: functional
NCI/ADR-RES = assay: Antiproliferative activity against human NCI-ADR-RES cells assessed as growth inhibition after 48 hrs by sulforhodamine B assay; assay type: functional
UACC-257 = assay: Antiproliferative activity against human UACC257 cells assessed as growth inhibition after 48 hrs by sulforhodamine B assay; assay type: functional; conditions: UACC-257, 48 h
TK-10 = assay: Antiproliferative activity against human TK10 cells assessed as growth inhibition after 48 hrs by sulforhodamine B assay; assay type: functional; conditions: TK-10, 48 h
KM12 = assay: Antiproliferative activity against human KM12 cells assessed as growth inhibition after 48 hrs by sulforhodamine B assay; assay type: functional; conditions: KM12, 48 h
T47D = assay: Antiproliferative activity against human T47D cells assessed as growth inhibition after 48 hrs by sulforhodamine B assay; assay type: functional
HCT-15 = assay: Antiproliferative activity against human HCT15 cells assessed as growth inhibition after 48 hrs by sulforhodamine B assay; assay type: functional; conditions: HCT-15, 48 h
K562 = assay: Antiproliferative activity against human K562 cells assessed as growth inhibition after 48 hrs by sulforhodamine B assay; assay type: functional, cell-based; conditions: K562, 48 h
UO-31 = assay: Antiproliferative activity against human UO31 cells assessed as growth inhibition after 48 hrs by sulforhodamine B assay; assay type: functional; conditions: UO-31, 48 h
[4] = Antioxidant activity assessed as DPPH radical scavenging activity incubated in dark for 30 mins by spectrophotometric method relative to control; assay type: functional; set-up: concentration or dose not given beside the values
LOX IMVI = assay: Antiproliferative activity against human LOXIMVI cells assessed as growth inhibition after 48 hrs by sulforhodamine B assay; assay type: functional
WI-38 = assay: Cytotoxicity activity against human WI38 cells assessed as reduction in cell viability measured after 48 hrs by MTT assay; assay type: cell-based; conditions: WI-38, 48 h
HT-29 = assay: Antiproliferative activity against human HT-29 cells assessed as growth inhibition after 48 hrs by sulforhodamine B assay; assay type: functional; conditions: HT-29, 48 h
PC-3 = assay: Antiproliferative activity against human PC3 cells assessed as growth inhibition after 48 hrs by sulforhodamine B assay; assay type: functional; conditions: PC-3, 48 h
RXF 393 = assay: Antiproliferative activity against human RXF393 cells assessed as growth inhibition after 48 hrs by sulforhodamine B assay; assay type: functional; conditions: RXF 393, 48 h
A549 = assay: Antiproliferative activity against human A549/ATCC cells assessed as growth inhibition after 48 hrs by sulforhodamine B assay; assay type: functional; conditions: A549, 48 h
Erythrocyte [5] = assay: Haemolytic activity in human erythrocytes assessed as induction of hemolysis at 0.625 mM after 30 mins relative to H202; assay type: cell-based; conditions: erythrocyte, 0.5 h, 625 µM
MOLT-4 = assay: Antiproliferative activity against human MOLT4 cells assessed as growth inhibition after 48 hrs by sulforhodamine B assay; assay type: functional; conditions: MOLT-4, 48 h
HOP-62 = assay: Antiproliferative activity against human HOP62 cells assessed as growth inhibition after 48 hrs by sulforhodamine B assay; assay type: functional; conditions: HOP-62, 48 h
A498 = assay: Antiproliferative activity against human A498 cells assessed as growth inhibition after 48 hrs by sulforhodamine B assay; assay type: functional; conditions: A498, 48 h
NCI-H23 = assay: Antiproliferative activity against human NCI-H23 cells assessed as growth inhibition after 48 hrs by sulforhodamine B assay; assay type: functional; conditions: NCI-H23, 48 h
OVCAR-8 = assay: Antiproliferative activity against human OVCAR8 cells assessed as growth inhibition after 48 hrs by sulforhodamine B assay; assay type: functional; conditions: OVCAR-8, 48 h
[6] = (§2) Haemolytic activity in human erythrocytes assessed as induction of hemolysis at 1.25 mM after 30 mins relative to H202; assay type: cell-based, Erythrocyte; conditions: erythrocytes, read-out: Activity
SNB-75 = assay: Antiproliferative activity against human SNB75 cells assessed as growth inhibition after 48 hrs by sulforhodamine B assay; assay type: functional; conditions: SNB-75, 48 h
SF-539 = assay: Antiproliferative activity against human SF539 cells assessed as growth inhibition after 48 hrs by sulforhodamine B assay; assay type: functional; conditions: SF-539, 48 h
HCC 2998 = assay: Antiproliferative activity against human HCC2998 cells assessed as growth inhibition after 48 hrs by sulforhodamine B assay; assay type: functional; conditions: HCC 2998, 48 h
BT-549 = assay: Antiproliferative activity against human BT549 cells assessed as growth inhibition after 48 hrs by sulforhodamine B assay; assay type: functional; conditions: BT-549, 48 h
OVCAR-3 = assay: Antiproliferative activity against human OVCAR3 cells assessed as growth inhibition after 48 hrs by sulforhodamine B assay; assay type: functional; conditions: OVCAR-3, 48 h
U-251 = assay: Antiproliferative activity against human U251 cells assessed as growth inhibition after 48 hrs by sulforhodamine B assay; assay type: functional; conditions: U-251, 48 h
OVCAR-4 = assay: Antiproliferative activity against human OVCAR4 cells assessed as growth inhibition after 48 hrs by sulforhodamine B assay; assay type: functional; conditions: OVCAR-4, 48 h
CAKI-1 = assay: Antiproliferative activity against human CAKI-1 cells assessed as growth inhibition after 48 hrs by sulforhodamine B assay; assay type: functional; conditions: CAKI-1, 48 h
HCT-116 [7] = assay: Reduction in CDK1 mRNA expression in human HCT116 cells at 100 nM after 6 hrs hrs by SYBR green dye-based qRT-PCR analysis relative to control; assay type: functional; conditions: HCT-116, 6 h
Erythrocyte [8] = assay: as §1; assay type: cell-based; conditions: erythrocyte, 0.5 h, 2500 µM
HOP-92 = assay: Antiproliferative activity against human HOP92 cells assessed as growth inhibition after 48 hrs by sulforhodamine B assay; assay type: functional; conditions: HOP-92, 48 h
Erythrocyte [9] = assay: as §2; assay type: cell-based; conditions: erythrocyte, 0.5 h, 1250 µM

Structure (SMILES) | GI50 (SR) [µM] | GI50 (MDA-MB-468) [µM] | GI50 (Hs-578T) [µM] | fold change (FC) [2] | fold change (FC) (HCT-116 [3]) | GI50 (NCI/ADR-RES) [µM] | GI50 (UACC-257) [µM] | GI50 (TK-10) [µM] | GI50 (KM12) [µM] | GI50 (T47D) [µM] | GI50 (HCT-15) [µM] | IC50 (K562; read-out: IC50) [µM] | GI50 (UO-31) [µM] | inhibition [4] [%] | GI50 (LOX IMVI) [µM] | IC50 (WI-38) [µM] | GI50 (HT-29) [µM] | GI50 (PC-3) [µM] | GI50 (RXF 393) [µM] | GI50 (A549) [µM] | other results
N=C(N)c1ccc(-c2ccc(-c3ccc(Cl)cc3)o2)o1 | 1.63 | 2.19 | 2 | 0.2 | 3.55 | 1.8 | 1.99 | 2.07 | 1.63 | 1.71 | 1.52 | 1.37 | 1.75 | 17.5 | 1.76 | 10.1 | 1.68 | 1.81 | 1.82 | 1.98 | hemolysis at 0.5 h, 2500 µM [1]: 41.3%; Activity (Erythrocyte [5]): Non-Toxic; GI50 (MOLT-4): 1.66 µM; GI50 (HOP-62): 1.65 µM; GI50 (A498): 2.12 µM; GI50 (NCI-H23): 1.69 µM; GI50 (OVCAR-8): 2.02 µM; hemolysis at 0.5 h, 1250 µM [6]: 14%; GI50 (SNB-75): 1.5 µM; GI50 (SF-539): 1.71 µM; GI50 (HCC 2998): 1.96 µM; GI50 (BT-549): 5.92 µM; GI50 (OVCAR-3): 1.83 µM; GI50 (U-251): 1.88 µM; GI50 (OVCAR-4): 1.8 µM; GI50 (CAKI-1): 1.69 µM
N=C(N)c1ccc(-c2ccc(-c3cncc4ccccc34)s2)s1 | 0.27 | 1.27 | 2.22 | 0.6 | 3.03 | 1.68 | 2.47 | 1.84 | 1.51 | 1.52 | 0.98 | 0.24 | 1.39 | 52.5 | 1.11 | > 100 | 0.56 | 1.56 | 1.6 | 1.62 | inhibition at 0.1 µM (HCT-116 [7]): 84%; Activity (Erythrocyte [8]): Non-Toxic; IC50 (K562; read-out: pIC50 (converted)): 38000 µM; GI50 (HOP-92): 1.37 µM; Activity (Erythrocyte [5]): Non-Toxic; GI50 (MOLT-4): 1.17 µM; GI50 (HOP-62): 1.7 µM; GI50 (A498): 1.69 µM; GI50 (NCI-H23): 1.76 µM; GI50 (OVCAR-8): 1.83 µM; Activity (Erythrocyte [9]): Non-Toxic; GI50 (SNB-75): 1.93 µM; GI50 (SF-539): 1.73 µM; GI50 (HCC 2998): 1.53 µM; GI50 (BT-549): 1.51 µM; GI50 (OVCAR-3): 1.65 µM; GI50 (U-251): 1.72 µM; GI50 (OVCAR-4): 0.3 µM; GI50 (CAKI-1): 1.6 µM
N=C(N)c1ccc(-c2ccc(-c3cc(Cl)cc(Cl)c3)s2)s1 | 1.06 | 2.06 | 2.15 | 0.3 | 1.61 | 2.06 | 2.05 | 1.85 | 1.75 | 1.8 | 1.62 | 1.29 | 1.74 | 27.2 | 1.69 | 98.8 | 1.65 | 1.88 | 1.85 | 2.07 | inhibition at 0.1 µM (HCT-116 [7]): 79%; Activity (Erythrocyte [8]): Non-Toxic; Activity (Erythrocyte [5]): Non-Toxic; GI50 (MOLT-4): 1.71 µM; GI50 (HOP-62): 1.76 µM; GI50 (A498): 1.53 µM; GI50 (NCI-H23): 1.99 µM; GI50 (OVCAR-8): 2.39 µM; Activity (Erythrocyte [9]): Non-Toxic; GI50 (SNB-75): 1.38 µM; GI50 (SF-539): 1.7 µM; GI50 (HCC 2998): 1.75 µM; GI50 (BT-549): 4.37 µM; GI50 (OVCAR-3): 1.81 µM; GI50 (U-251): 1.86 µM; GI50 (OVCAR-4): 1.91 µM; GI50 (CAKI-1): 1.72 µM

Source: ChEMBL document CHEMBL4346657, “Anticancer activity, dual prooxidant/antioxidant effect and apoptosis induction profile of new bichalcophene-5-carboxamidines” (Eur J Med Chem, 2019)
